Some test systems named below: SF-539 CNS; SF-295 CNS; SNB-75 CNS; UACC-62 melanoma; HCT-116 colon; SW-620 colon; HL-60(TB) leukemia; T-47D breast; UACC-257 melanoma; MOLT-4 leukemia.
Holding throughout (assay): NCI tumour cell line growth inhibition, 48 h

Each structure is given as a SMILES string. Values joined by “and” are separate entries in the source; they are usually repeats but may differ in a detail not shown here. Equal entries are not always repeated.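 The compound was tested at five concentrations on cells cultured in 96-well plates, with a 48-hour exposure period. GI50 = concentration required for 50% inhibition of growth. The concentration for full growth arrest is given as TGI.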

Take `CC1OC(O[C@H]2/C=C/C=C/C=C/C=C/C=C/C=C/C=C/[C@H](C)[C@@H](O)[C@@H](C)[C@H](C)OC(=O)C[C@H](O)C[C@H](O)CC[C@@H](O)[C@H](O)C[C@H](O)C[C@]3(O)C[C@H](O)[C@@H](C(=O)O)[C@H](C2)O3)C(O)C(N)C1O` (stereo partly drawn): the GI50 with SF-539 CNS is 19.3 µM; with SF-295 CNS, above 61.3 µM; with SNB-75 CNS, 32.7 µM; with UACC-62 melanoma it was 21.8 µM; in the experiment on HL-60(TB) leukemia, 3.29 µM; in the experiment on T-47D breast, 52.3 µM. The GI50 in the experiment with UACC-257 melanoma was 12.2 µM; in the experiment on MOLT-4 leukemia, 29.2 µM. Also, the TGI is 47.3 µM in the experiment with SF-539 CNS; above 72.8 µM in the experiment with SF-295 CNS; 61.7 µM in the experiment with SNB-75 CNS; 43.9 µM in the experiment on UACC-62 melanoma; 50.2 µM with HCT-116 colon; 32.8 µM with SW-620 colon. Moreover, the TGI was 30.6 µM in the experiment with HL-60(TB) leukemia, above 86.8 µM in the experiment with T-47D breast, 40.4 µM in the experiment on UACC-257 melanoma and 75.4 µM in the experiment with MOLT-4 leukemia.
In the case of `CN(C)c1ccc2cc(-c3cc4c(oc3=O)-c3ccccc3OC4O)c(=O)oc2c1` (stereo not drawn), the GI50 was 6.83 µM with SF-539 CNS; 3.59 µM with SF-295 CNS; 5.96 µM in the experiment on SNB-75 CNS; 4.08 µM in the experiment with UACC-62 melanoma; 1.44 µM with HCT-116 colon; 15.6 µM with SW-620 colon. The GI50 is 5.7 µM with HL-60(TB) leukemia, 1.01 µM in the experiment with T-47D breast, 2.79 µM with UACC-257 melanoma and 0.919 µM in the experiment on MOLT-4 leukemia. Also, the TGI with SF-539 CNS is above 25 µM; with SF-295 CNS it was 10.3 µM; with SNB-75 CNS, 24 µM; in the experiment with UACC-62 melanoma it was 8.53 µM; in the experiment with HCT-116 colon, above 25 µM; in the experiment on SW-620 colon, above 25 µM. Further, the TGI in the experiment on HL-60(TB) leukemia is above 25 µM; with T-47D breast, 8.55 µM; in the experiment on UACC-257 melanoma it was 10.6 µM; in the experiment on MOLT-4 leukemia, 5.51 µM.
In the case of `N#Cc1nn(C2OC(COC(=O)c3ccccc3)C(OC(=O)c3ccccc3)C2OC(=O)c2ccccc2)c2nc[nH]c(=O)c12` (stereo not drawn), the TGI in the experiment on SF-539 CNS, in the experiment on SF-295 CNS, in the experiment with SNB-75 CNS, with UACC-62 melanoma, with HCT-116 colon and in the experiment on SW-620 colon was above 100 µM each time. Besides, the TGI was 83.4 µM in the experiment with HL-60(TB) leukemia, above 100 µM in the experiment with T-47D breast, above 100 µM in the experiment on UACC-257 melanoma and 95.4 µM in the experiment with MOLT-4 leukemia.
Turning to `Cc1cccc2c1NC(=O)[C@@]21[C@H](C(=O)c2ccccc2)[C@]2(C(=O)Nc3ccccc32)[C@H]2CCCN21`, the GI50 is 18.6 µM in the experiment with SF-539 CNS; 74.6 µM in the experiment with SF-295 CNS; 15 µM with SNB-75 CNS; 12.5 µM in the experiment with UACC-62 melanoma; 15.2 µM in the experiment on HCT-116 colon; 21.6 µM in the experiment with SW-620 colon. The GI50 is 56.8 µM with HL-60(TB) leukemia, 20.9 µM in the experiment on T-47D breast, above 100 µM in the experiment with UACC-257 melanoma and 52.7 µM in the experiment on MOLT-4 leukemia. Moreover, the TGI in the experiment on SF-539 CNS is 48.9 µM; in the experiment with SF-295 CNS it was above 100 µM; in the experiment on SNB-75 CNS it was 63.4 µM; in the experiment on UACC-62 melanoma, above 100 µM; in the experiment with HCT-116 colon, 46.5 µM; in the experiment on SW-620 colon, above 100 µM. The TGI in the experiment with HL-60(TB) leukemia, in the experiment on T-47D breast, in the experiment on UACC-257 melanoma and with MOLT-4 leukemia was above 100 µM in each case.
For `COc1ccc(-c2nc(N)c3ncn(C4OC(CO)C(O)C4O)c3n2)cc1` (stereo not drawn), the TGI in the experiment with SF-539 CNS, in the experiment on SF-295 CNS, in the experiment on SNB-75 CNS, in the experiment with UACC-62 melanoma, with HCT-116 colon and with SW-620 colon was above 100 µM throughout. Also, the TGI in the experiment with HL-60(TB) leukemia, with T-47D breast, in the experiment with UACC-257 melanoma and in the experiment on MOLT-4 leukemia was above 100 µM throughout.
Turning to `N/C(=N\c1nc2ccccc2s1)NC(=O)Nc1ccccc1Cl`, the GI50 was 0.0853 µM in the experiment with SF-539 CNS; 0.106 µM with SF-295 CNS; 0.0336 µM in the experiment on SNB-75 CNS; 0.125 µM in the experiment on UACC-62 melanoma; 0.0852 µM in the experiment on HCT-116 colon; 0.0883 µM in the experiment on SW-620 colon. Further, the GI50 with HL-60(TB) leukemia is 0.082 µM; with T-47D breast it was 0.557 µM; in the experiment on UACC-257 melanoma it was 18.6 µM; in the experiment on MOLT-4 leukemia, 0.167 µM. In addition, the TGI is 0.834 µM in the experiment on SF-539 CNS; 1.74 µM in the experiment with SF-295 CNS; 0.214 µM in the experiment on SNB-75 CNS; above 78.9 µM in the experiment on UACC-62 melanoma; 3.5 µM in the experiment with HCT-116 colon; above 52.3 µM in the experiment on SW-620 colon. Also, the TGI with HL-60(TB) leukemia was 0.688 µM; with T-47D breast it was above 100 µM; with UACC-257 melanoma it was above 100 µM; in the experiment with MOLT-4 leukemia, above 56.6 µM.
For the molecule `N=C1C(c2nc3ccccc3s2)=C(O)CN1c1ccc(Cl)cc1Cl`, the GI50 in the experiment with SF-539 CNS was 7.62 µM; with SF-295 CNS, 12.7 µM; in the experiment on SNB-75 CNS it was 13.1 µM; in the experiment on UACC-62 melanoma, 12 µM; in the experiment on HCT-116 colon, 4.95 µM; with SW-620 colon, 36.7 µM. In addition, the GI50 in the experiment on HL-60(TB) leukemia was 41.9 µM; in the experiment on T-47D breast it was 44.9 µM; in the experiment on UACC-257 melanoma, 7 µM; with MOLT-4 leukemia, 22.7 µM. Moreover, the TGI with SF-539 CNS was 26.7 µM; in the experiment on SF-295 CNS it was 52.4 µM; in the experiment with SNB-75 CNS it was above 100 µM; in the experiment on UACC-62 melanoma it was 52.9 µM; with HCT-116 colon, 25.6 µM; with SW-620 colon, above 100 µM. The TGI with HL-60(TB) leukemia was above 100 µM; in the experiment with T-47D breast it was above 100 µM; in the experiment with UACC-257 melanoma, 45.3 µM; in the experiment with MOLT-4 leukemia, above 100 µM.
Take `COc1cc2c(Nc3ccc(Br)cc3F)ncnc2cc1OCC1CCN(C)CC1`: the GI50 was 2.93 µM and 7.94 µM with SF-539 CNS; 5.39 µM and > 10 µM in the experiment on SF-295 CNS; 0.737 µM and 1.13 µM in the experiment with SNB-75 CNS; 1.8 µM and 2.79 µM in the experiment with UACC-62 melanoma; 3.8 µM and 4.32 µM in the experiment on HCT-116 colon; 4.69 µM and > 10 µM with SW-620 colon. Further, the GI50 in the experiment with HL-60(TB) leukemia was 2.65 µM and 3.14 µM; in the experiment on T-47D breast, 1.66 µM and 1.32 µM; with UACC-257 melanoma, 1.85 µM and 1.73 µM; with MOLT-4 leukemia it was 3.97 µM and 9.42 µM. In addition, the TGI is 9.49 µM and > 10 µM in the experiment on SF-539 CNS; 15.3 µM and > 10 µM in the experiment with SF-295 CNS; 5.79 µM and > 10 µM in the experiment on SNB-75 CNS; 4.03 µM and > 10 µM with UACC-62 melanoma; 15.1 µM and > 10 µM in the experiment with HCT-116 colon; 15.7 µM and > 10 µM with SW-620 colon. Moreover, the TGI is 7.56 µM and > 10 µM in the experiment with HL-60(TB) leukemia; 8.56 µM and > 10 µM in the experiment on T-47D breast; 3.44 µM and 3.6 µM in the experiment with UACC-257 melanoma; 15.5 µM and > 10 µM in the experiment on MOLT-4 leukemia.

The values above are taken from PubChem BioAssay (NCI).
